The text below walks through data of ChEMBL document CHEMBL1148916, “Additional cytotoxic sterols and saponins from the starfish certonardoa semiregularis” (2004).

Format in all cases: functional
Holding throughout (conditions): read-out: ED50 (the source's name)

Test [1] relates to SK-MEL-2. Description: Cytotoxicity against human SK-MEL-2 cells.
The subject of test [2] is A549. Description: Cytotoxicity against human A549 cells.
Test [3] relates to HCT-15. Description: Cytotoxicity against human HCT15 cells.
The test system of test [4] is SK-OV-3. Nature of the test: Cytotoxicity against human SKOV3 cells.
Test [5] relates to XF498. Description: Cytotoxicity against human XF498 cells.

Values after ≈ are worked out from the molar mass of the structure shown. Where only a bound is given, the exact number is not on record here.

Consider `CC(/C=C/[C@@H](C)[C@H]1C[C@@H](O)[C@@H]2[C@]1(C)CC[C@@H]1[C@@]3(C)CC[C@H](O)[C@H](O)[C@@H]3[C@@H](O)C[C@]12O)CO` (stereo not given in full), for which the EC50 in test [1], in test [2], in test [3], in test [4] and in test [5] was above 30 µg/mL throughout.

On to `CO[C@H]1[C@H](O[C@H]2[C@H](O[C@@H](CC[C@@H](C)[C@H]3C[C@@H](O)[C@H]4[C@@H]5C[C@H](O)[C@H]6[C@@H](O)[C@@H](O)CC[C@]6(C)[C@H]5CC[C@@]43C)C(C)C)O[C@H](CO)[C@@H]2O)OC[C@@H](O)[C@@H]1O` [CERTONARDOSIDE H3], for which the EC50 turned out to be 0.82 µg/mL (≈ 1.12 µM) in test [1]; 3.65 µg/mL (≈ 4.99 µM) in test [2]; 7.2 µg/mL (≈ 9.85 µM) in test [3]; 2.8 µg/mL (≈ 3.83 µM) in test [4]; 0.52 µg/mL (≈ 0.711 µM) in test [5].

Regarding `CC(C)[C@H](CC[C@@H](C)[C@H]1C[C@@H](O)[C@H]2[C@@H]3C[C@H](O)[C@H]4[C@@H](O)[C@@H](O)CC[C@]4(C)[C@H]3CC[C@@]21C)O[C@@H]1O[C@H](CO)[C@H](O)[C@H]1O` [CERTONARDOSIDE H4], the EC50 was 8.3 µg/mL (≈ 14.2 µM) in test [1]; above 30 µg/mL in test [2]; above 30 µg/mL in test [3]; above 30 µg/mL in test [4]; above 30 µg/mL in test [5].

`C[C@H](CO)CCC[C@@H](C)[C@H]1C[C@@H](O)[C@@H]2[C@]1(C)CC[C@@H]1[C@@]3(C)CC[C@H](O)[C@H](O)[C@@H]3[C@@H](O)C[C@]12O` [CERTONARDOSTEROL A3]: the EC50 in test [1] came out at 5.24 µg/mL (≈ 11.2 µM); in test [2], 11.7 µg/mL (≈ 25 µM); in test [3], 20.3 µg/mL (≈ 43.3 µM); in test [4], 16.2 µg/mL (≈ 34.6 µM); in test [5] it was 18.6 µg/mL (≈ 39.7 µM).

Turning to `CC(/C=C/[C@@H](C)[C@H]1C[C@@H](O)[C@@H]2[C@]1(C)CC[C@@H]1[C@@]3(C)CC[C@H](O)[C@H](O)[C@@H]3[C@@H](O)C[C@]12O)[C@@H](C)O` (stereo not given in full) [CERTONARDOSTEROL A4], the EC50 in test [1] was 5.7 µg/mL (≈ 12.2 µM); in test [2], 17 µg/mL (≈ 36.4 µM); in test [3] it was 19.3 µg/mL (≈ 41.4 µM); in test [4], 16.4 µg/mL (≈ 35.1 µM); in test [5] it was 28.4 µg/mL (≈ 60.9 µM).

Turning to `CC(/C=C/[C@@H](C)[C@H]1C[C@@H](O)[C@H]2[C@@H]3C[C@H](O)[C@H]4[C@@H](O)[C@@H](O)CC[C@]4(C)[C@H]3CC[C@@]21C)CO` (stereo not given in full) [CERTONARDOSTEROL B3], the EC50 is 7.13 µg/mL (≈ 16.3 µM) in test [1]; 12.5 µg/mL (≈ 28.6 µM) in test [2]; 10.4 µg/mL (≈ 23.8 µM) in test [3]; 12.1 µg/mL (≈ 27.7 µM) in test [4]; 14.7 µg/mL (≈ 33.7 µM) in test [5].

With `CC(C)[C@](O)(CO)CC[C@@H](C)[C@H]1C[C@@H](O)[C@H]2[C@@H]3C[C@H](O)[C@H]4[C@@H](O)[C@@H](O)CC[C@]4(C)[C@H]3CC[C@@]21C` [CERTONARDOSTEROL B4], the EC50 in test [1] was 7.5 µg/mL (≈ 15.5 µM); in test [2], above 30 µg/mL; in test [3], above 30 µg/mL; in test [4] it was 36.6 µg/mL (≈ 75.8 µM); in test [5], above 30 µg/mL.

As for `C=C(CC[C@@H](C)[C@H]1CC(=O)[C@@H]2[C@]1(C)CC[C@@H]1[C@@]3(C)CC[C@H](O)[C@H](O)[C@@H]3[C@@H](O)C[C@]12O)[C@H](C)CO` [CERTONARDOSTEROL Q1], the EC50 in test [1] was 5.57 µg/mL (≈ 11.6 µM); in test [2], 12 µg/mL (≈ 25.1 µM); in test [3], 11.6 µg/mL (≈ 24.2 µM); in test [4], 10.9 µg/mL (≈ 22.8 µM); in test [5], 4.95 µg/mL (≈ 10.3 µM).

In the case of `CC(C)[C@@H](O)CC[C@@H](C)[C@H]1CC(=O)[C@@H]2[C@]1(C)CC[C@@H]1[C@@]3(C)CC[C@H](O)[C@H](O)[C@@H]3[C@@H](O)C[C@]12O` [CERTONARDOSTEROL Q2], the EC50 came to 4.2 µg/mL (≈ 9 µM) in test [1]; 6.94 µg/mL (≈ 14.9 µM) in test [2]; 5.82 µg/mL (≈ 12.5 µM) in test [3]; 6.85 µg/mL (≈ 14.7 µM) in test [4]; 4.1 µg/mL (≈ 8.79 µM) in test [5].

Consider `CC(C)[C@@H](O)CC[C@@H](C)[C@H]1CC(=O)[C@@H]2[C@]1(C)CC[C@@H]1[C@@]3(C)CC[C@H](O)C[C@@H]3[C@@H](O)C[C@]12O` [CERTONARDOSTEROL Q3], for which the EC50 worked out at 7.3 µg/mL (≈ 16.2 µM) in test [1]; 5.43 µg/mL (≈ 12 µM) in test [2]; 13.6 µg/mL (≈ 30.2 µM) in test [3]; 12.3 µg/mL (≈ 27.3 µM) in test [4]; 12.6 µg/mL (≈ 28 µM) in test [5].

As for `C[C@H](CO)CCC[C@@H](C)[C@H]1CC(=O)C2=C3C[C@H](O)[C@H]4[C@@H](O)[C@@H](O)CC[C@]4(C)[C@H]3CC[C@@]21C` [CERTONARDOSTEROL Q4], the EC50 in test [1] came to 3.4 µg/mL (≈ 7.58 µM); in test [2], 3.8 µg/mL (≈ 8.47 µM); in test [3], 4.2 µg/mL (≈ 9.36 µM); in test [4] it was 4.1 µg/mL (≈ 9.14 µM); in test [5] it was 2.9 µg/mL (≈ 6.46 µM).

In the case of `C=C(CC[C@@H](C)[C@H]1CC(=O)C2=C3C[C@H](O)[C@H]4[C@@H](O)[C@@H](O)CC[C@]4(C)[C@H]3CC[C@@]21C)[C@H](C)CO` [CERTONARDOSTEROL Q5], the EC50 in test [1], in test [2], in test [3], in test [4] and in test [5] was above 30 µg/mL each time.

With `CC(C)[C@@H](O)CC[C@@H](C)[C@H]1CC(=O)C2=C3C[C@H](O)[C@H]4C[C@@H](O)CC[C@]4(C)[C@H]3CC[C@@]21C` [CERTONARDOSTEROL Q6], the EC50 in test [1] was 0.17 µg/mL (≈ 0.393 µM); in test [2], 0.43 µg/mL (≈ 0.994 µM); in test [3], 0.48 µg/mL (≈ 1.11 µM); in test [4], 0.22 µg/mL (≈ 0.509 µM); in test [5], 0.12 µg/mL (≈ 0.277 µM).

Consider `CC(C)[C@@H](O)CC[C@@H](C)[C@H]1CC(=O)C2=C3C[C@H](O)[C@H]4[C@@H](O)[C@@H](O)CC[C@]4(C)[C@H]3CC[C@@]21C` [CERTONARDOSTEROL Q7], for which the EC50 came to 4.66 µg/mL (≈ 10.4 µM) in test [1]; 4.58 µg/mL (≈ 10.2 µM) in test [2]; 7.1 µg/mL (≈ 15.8 µM) in test [3]; 6.65 µg/mL (≈ 14.8 µM) in test [4]; 3.8 µg/mL (≈ 8.47 µM) in test [5].

For `COc1cccc2c1C(=O)c1c(O)c3c(c(O)c1C2=O)C[C@@](O)(C(=O)CO)C[C@@H]3O[C@H]1C[C@H](N)[C@H](O)[C@H](C)O1` [DOXORUBICIN], the EC50 amounted to 0.05 µg/mL (≈ 0.092 µM) in test [1]; 0.04 µg/mL (≈ 0.0736 µM) in test [2]; 0.18 µg/mL (≈ 0.331 µM) in test [3]; 0.12 µg/mL (≈ 0.221 µM) in test [4]; 0.12 µg/mL (≈ 0.221 µM) in test [5].
